According to patent US7964701B2, “Alpha-fetoprotein peptides” (Albany Medical College, priority 2006, dated 2011):
Entries after “also recorded” stand apart in the source; their conditions may differ. Where a SMILES comes first, the peptide text is derived from it. [ ]: non-standard residue; d: D form. Hyp = O=C(O)[C@@H]1C[C@@H](O)CN1

Tests used:
[1] = test system: E2-stimulated growth of mouse uterus; assay: Immature mouse uterine growth assay; format: in vivo
Source text: The anti-breast cancer activity of the linear and cyclic 8-mer and 9-mer AFP-derived peptides is well-documented using the immature mouse uterine growth assay and the human breast cancer xenograft assay; there is a strong correlation between the results of these two assays. To evaluate peptide-induced inhibition by the peptide of the present invention of estrogen-stimulated proliferation of normal tissue, the immature mouse uterine growth assay was utilized. Briefly, 13-15 day-old Swiss/Webster female mice, 6-8 g in body weight, were distributed into treatment groups of 5 mice per group so that each group contained animals of the same range of body weight. The peptide of the invention was injected i.p., s.c., or p.o. into the mice. One hour later, estradiol (E2) or vehicle control for E2 was injected i.p. Twenty-two hours after the second injection, uteri were harvested, trimmed free of mesenteries, and immediately weighed. The uterine weights were normalized to mouse body weights to compensate for differences in body weight among litters of the same age. Experiments employed a minimum of five mice per group and the mean normalized uterine weight±SE for each group was calculated. Percent growth inhibition in a test group was calculated from normalized uterine wet weights as described below.
Differences between groups were evaluated, employing the nonparametric Wicoxon ranks sum test. In all cases, growth inhibitions that were greater than 25% were significant at P≦0.05.
In other experiments, peptide analogs comprising the sequences TOVN SEQ ID NO.: 3) and TPVN (SEQ ID NO.: 2) were assessed for their ability to inhibit E2-stimulated growth of mouse uterus after intraperitoneal and oral administration.
The ability to inhibit E2-stimulated growth of normal mouse uterus was used as a screening assay for biological activity of AFPep analogs. In general, inhibitory activity≧20% is considered to be biologically significant. Each analog's inhibitory effect on E2-stimulated growth was compared to AFPep (a positive control) and to PGVGQ (SEQ ID NO.: 44)(a negative control). PGVGQ (SEQ ID NO.: 44) (amino acids 478-482 of AFP) is a portion of the primary structure of AFP near to the anti-cancer active site of AFP and is comprised of amino acids (P, V, and G) that are important components of AFPep. A scrambled analog of AFPep was not used because some scrambled peptides retain low biological activity (data not shown). In Table 3, bold letters denote the sequences containing a putative Type I beta-turn, which was postulated to be necessary for antiestrogenic activity.

[2] = test system: MCF-7 human breast cancer cells; assay: MCF-7 human tumor xenograft assay in SCID mice; format: in vivo, mouse
Description: The peptides of the invention were evaluated for their ability to inhibit tumor growth in a human tumor xenograft assay. Briefly, MCF-7 human breast cancer cells were obtained from ATCC® (Rockville, Md.) and were grown in DMEM supplemented with 5% FCS, 1% non-essential amino acids, 10 ng/ml insulin, 2 mM L-glutamine, 100 units/ml penicillin, and 100 μg/ml streptomycin. MCF-7 cells from culture were solidified into a fibrin clot. The tumor-containing clots were cut into pieces about 1.5 mm in diameter and implanted under the kidney capsule of severe combined immunodeficient (ICR-SCID) mice (Taconic Farms, Germantown, N.Y.) as described in Bennett et al. (Clin. Cancer Res. 1998; 4:2877-84).
Estrogen supplementation of mice was required for the growth of MCF-7 tumors. Supplementation was accomplished by s.c. implantation of a Silastic tubing capsule containing solid E2 (2 mm in length) inserted on the day of tumor implantation. Tumor size was evaluated during survival laparotomy using a dissecting microscope at the time of tumor implantation and at days 15 and 30 after tumor implantation.
The T47D human breast cancer cell line is responsive in culture, but it was a less reliable tool when grown as a xenograft tumor in immune deficient mice, having a take-rate of <60% in these mice. However, the MCF-7 human breast cancer cell line has a tumor take-rate of 100% in immune deficient mice and is completely dependent on E2 for growth in these mice (2). Consequently, MCF-7 xenografts were used as a model for ER+human breast cancer to evaluate, in vivo, the effectiveness of TOVNO (SEQ ID NO.: 7) and TOVNOGNEK (SEQ ID NO.: 34) as anticancer agents.

[3] = test system: T47D human breast cancer cells
Description: T47D cells were obtained from ATCC® (Rockville, Md.) and grown in culture according recommended protocols. Cells were treated with 1 nM estrogen or 100 nM TOVNO (SEQ ID NO.: 7)/1 nM estrogen. Control cells received 10% estrogen-free media. Cells were treated for seven days.
A number of AFPep analogs were assessed for in vitro anticancer activity.

[4] = test system: E2-stimulated growth of mouse uterus; settings: Mesfin et al. / earlier studies; cited from earlier work

Row | Molecule | dose-response profile, inhibition of E2-stimulated uterine growth ([1]; FIG. 5) | growth of ER+ human MCF-7 breast cancer tumors ([2]; once a day 10 μg per mouse i.p., FIG. 7b) | growth of ER+ human MCF-7 breast cancer tumors ([2]; once a day 100 μg by oral gavage, FIG. 7a) | concentration up to which E2-stimulated T47D growth was inhibited in a concentration dependent manner / activity maintained ([3]; FIG. 6) | dose response profile, inhibition of E2-stimulated T47D cell growth ([3]; FIG. 6) | Inhibition ± S.E, % T47D cell proliferation ([3]; peptide 1 μM, E2-stimulated) [%] | antiestrogenic activity reported in earlier studies [4] | Inhibition ± S.E, % Immature mouse uterine growth Intraperitoneal ([1]; 1 μg/mouse intraperitoneally) [%] | antiestrogenic activity (inhibition of E2-stimulated uterine growth), in words ([1]; Table 3 discussion, 1 μg/mouse intraperitoneally)
1 | CC(C)[C@@H]1NC(=O)[C@@H]2C[C@@H](O)CN2C(=O)[C@H]([C@@H](C)O)NC(=O)[C@H](CCCCN)NC(=O)[C@H](CCC(=O)O)NC(=O)[C@H](CC(N)=O)NC(=O)CNC(=O)[C@@H]2C[C@@H](O)CN2C(=O)[C@H](CC(N)=O)NC1=O [cyclo[EKTOVNOGN], reference compound] (cyclo(EKT[Hyp]VN[Hyp]GN)) | attenuated but did not completely eliminate this loss of activity with increasing doses | significantly inhibited | significantly inhibited | up to 10^−6 M | lost activity at higher concentrations | 51 ± 4 | – | – | –
2 | MTPVNPG [7-mer peptide earlier reported by Mesfin et al, reference compound] | – | – | – | – | – | – | substantially reduced antiestrogenic properties; also recorded: little antiestrogenic activity | 18 ± 1 | significantly less activity
